Experimental data as given in patent US20240182449A1, “CRYSTALLINE FORMS OF AN MK2 INHIBITOR” (XinThera, Inc., priority 2022, published 2024).

Key:
[1] = Salt screening with strong acids (chemical stability, HPLC purity); assay type: physicochemical
Method: A salt screening was conducted with 6 pharmaceutically acceptable strong acids. About 25 mg of compound 1 was weighed into a 1.5-mL glass vial, then 1.1 eq. of selected acid was weighted into the above glass vial. Liquid strong acid was pre-diluted in corresponding solvent. After addition of 0.5 mL solvent, the mixture was stirred at RT for 24 h. 0.5 mL more solvent was added to dilute several viscous systems at 4 h (highlighted as * in the summary table). If no solid was obtained, anti-solvent of heptane was added into the filtrates gradually at RT to induce precipitation (highlighted as ** in the summary table). The suspensions were filtered and the solids were vacuum dried at 40° C. for 4 h.
HPLC results (Table 33) confirmed significant purity decrease by>15%.

[2] = Slurry competition experiments (thermodynamic stability relationship); assay type: physicochemical; settings: RT
Method: Slurry competition experiments were carried out between anhydrous and hydrates, to establish stability relationships. Appropriate amount of Form I was suspended in different solvents for pre-saturation at RT. Then the filtrate was added into equal amount of different forms, and the mixture was kept stirring at RT for certain time before XRPD tests.

[3] = Slurry conversion of Form I and Form X in solvents (XRPD result); assay type: physicochemical; settings: slurry at RT, Toluene
[4] = as above; assay type: physicochemical; settings: for XRPD Result-Day 3: slurry at 80° C.
Method: Appropriate amount of Form I was added into different solvents to make suspensions, which were kept stirring at RT and 50° C. for 3 and 7 days, and at 80° C. for 3 days. Solid samples were collected by centrifugation and analyzed by XRPD. Forms I-IV, VII and VIII were obtained by slurry experiments of Form I.
Appropriate amount of Form X was added into different solvents to make suspensions, which were kept stirring at RT and 50° C. for 3 and 7 days, and at 80° C. for 3 days. Solid samples were collected by centrifugation and analyzed by XRPD.

[5] = Solubility estimation at RT by visual observation in selected solvent systems; settings: RT
Method: The solubility of compound 1 Form I and Form X was estimated at RT by visual observation in selected solvent systems. Approximately 5 mg solids were weighed into 8 mL glass vial, and then solvent was added stepwise until solids were dissolved completely or a total of solvent volume reached 5 mL.

[6] = slurry at 50° C., 2-MeTHF/CYH (1/4)
[7] = slurry at 50° C., ACN/water (1/9)
[8] = slurry at 50° C., Acetone/water (1/4)
[9] = slurry at 50° C., IPAc/heptane (1/4)
[10] = slurry at 50° C., IPE/water (200/1)
[11] = slurry at 50° C., Toluene/heptane (1/4)
[12] = slurry at RT, Acetone/water (1/4)
[13] = slurry at RT, IPAc/heptane (1/4)
[14] = slurry at RT, IPE/water (200/1)
[15] = slurry at RT, Toluene/heptane (1/4)

[2H]C([2H])(Oc1cc(C)n(-c2c(C)cnc(-n3ccc(C(C)(C)O)n3)c2F)c(=O)c1Cl)c1ncc(F)cc1F [Form I, starting material]
Purity (area %) ([1]; salt screening samples, HPLC, chemical stability under strong acid): 99.29 area %

[2H]C([2H])(Oc1cc(C)n(-c2c(C)cnc(-n3ccc(C(C)(C)O)n3)c2F)c(=O)c1Cl)c1ncc(F)cc1F [Form I + IV]
Output of competitive slurry (XRPD) ([2]; Water, 3 d): Form IV | Output of competitive slurry (XRPD) ([2]; Water/MeOH (9/1), 3 d): Form IV + IX | Output of competitive slurry (XRPD) ([2]; Water/MeOH (19/1), 3 d): Form IV + IX

[2H]C([2H])(Oc1cc(C)n(-c2c(C)cnc(-n3ccc(C(C)(C)O)n3)c2F)c(=O)c1Cl)c1ncc(F)cc1F [Form VIII]
Output of competitive slurry (XRPD) ([2]; Water, 1 d): Form I

[2H]C([2H])(Oc1cc(C)n(-c2c(C)cnc(-n3ccc(C(C)(C)O)n3)c2F)c(=O)c1Cl)c1ncc(F)cc1F (atropisomer, axis not shown; (M)) [compound 1, (M)-3-chloro-4-((3,5-difluoropyridin-2-yl)methoxy-d2)-3′-fluoro-2′-(3-(2-hydroxypropan-2-yl)-1H-pyrazol-1-yl)-5′,6-dimethyl-2H-[1,4′-bipyridin]-2-one]
chemical stability under strong acidic conditions ([1]; salt screening with 6 strong acids): chemically unstable

[2H]C([2H])(Oc1cc(C)n(-c2c(C)cnc(-n3ccc(C(C)(C)O)n3)c2F)c(=O)c1Cl)c1ncc(F)cc1F [Form I]
XRPD Result (6 d) [3]: Form IV (6 d) | XRPD Result Day 3 [4, 6]: Form VII | XRPD Result Day 7 [4, 6]: Form III | XRPD Result Day 3 [4, 7]: Form IV | XRPD Result Day 7 [4, 7]: Form IV | XRPD Result Day 3 [4, 8]: Form IV | XRPD Result Day 7 [4, 8]: Form IV | XRPD Result Day 3 ([4]; slurry at 50° C., CYH): Form IV | XRPD Result Day 7 ([4]; slurry at 50° C., CYH): Form IV | XRPD Result Day 3 ([4]; slurry at 50° C., Heptane): Form IV | XRPD Result Day 7 ([4]; slurry at 50° C., Heptane): Form IV | XRPD Result Day 3 [4, 9]: Form IV + VIII | XRPD Result Day 7 [4, 9]: Form IV + VIII | XRPD Result Day 3 ([4]; slurry at 50° C., IPE): Form IV | XRPD Result Day 7 ([4]; slurry at 50° C., IPE): Form IV + VIII | XRPD Result Day 3 [4, 10]: Form IV | XRPD Result Day 7 [4, 10]: Form IV | XRPD Result Day 3 ([4]; slurry at 50° C., MTBE): Form III | XRPD Result Day 7 ([4]; slurry at 50° C., MTBE): Form III | XRPD Result Day 3 ([4]; slurry at 50° C., MeCYH): Form IV | XRPD Result Day 7 ([4]; slurry at 50° C., MeCYH): Form IV | XRPD Result Day 3 ([4]; slurry at 50° C., Toluene): Clear | XRPD Result Day 7 ([4]; slurry at 50° C., Toluene): Clear | XRPD Result Day 3 [4, 11]: Form IV | XRPD Result Day 7 [4, 11]: Form IV | XRPD Result Day 3 ([4]; slurry at 50° C., Water): Form IV | XRPD Result Day 7 ([4]; slurry at 50° C., Water): Form IV | XRPD Result-Day 3 ([4]; CYH): Form VIII | XRPD Result-Day 3 ([4]; Heptane): Form VIII | XRPD Result-Day 3 ([4]; MeCYH): Form VIII | XRPD Result-Day 3 ([4]; Water): Form IV | XRPD Result Day 3 ([4]; slurry at RT, ACN/water (1/9)): Form IV | XRPD Result Day 7 ([4]; slurry at RT, ACN/water (1/9)): Form IV | XRPD Result Day 3 [4, 12]: Form VII | XRPD Result Day 7 [4, 12]: Form VII | XRPD Result Day 3 ([4]; slurry at RT, CYH): Form I | XRPD Result Day 7 ([4]; slurry at RT, CYH): Form I | XRPD Result Day 3 ([4]; slurry at RT, Heptane): Form I | XRPD Result Day 7 ([4]; slurry at RT, Heptane): Form I | XRPD Result Day 3 [4, 13]: Form IV | XRPD Result Day 7 [4, 13]: Form IV | XRPD Result Day 3 [4, 14]: Form IV | XRPD Result Day 7 [4, 14]: Form IV | XRPD Result Day 3 ([4]; slurry at RT, MTBE): Form III | XRPD Result Day 7 ([4]; slurry at RT, MTBE): Form III | XRPD Result Day 3 ([4]; slurry at RT, MeCYH): Form I | XRPD Result Day 7 ([4]; slurry at RT, MeCYH): Form I | XRPD Result Day 3 ([4]; slurry at RT, Toluene): Gel-like on the wall | XRPD Result Day 7 ([4]; slurry at RT, Toluene): Gel-like on the wall | XRPD Result Day 3 [4, 15]: Form IV | XRPD Result Day 7 [4, 15]: Form IV | XRPD Result Day 3 ([4]; slurry at RT, Water): Form I | XRPD Result Day 7 ([4]; slurry at RT, Water): Form I | Estimated Solubility ([5]; CYH): <1000 µg/mL | Estimated Solubility ([5]; Heptane): <1000 µg/mL | Estimated Solubility ([5]; IPE): <1000 µg/mL | Estimated Solubility ([5]; Water): <1000 µg/mL | Estimated Solubility ([5]; visual observation, most tested solvents): > 100000 µg/mL

[2H]C([2H])(Oc1cc(C)n(-c2c(C)cnc(-n3ccc(C(C)(C)O)n3)c2F)c(=O)c1Cl)c1ncc(F)cc1F [Form IV + IX]
Output of competitive slurry (XRPD) ([2]; Water, 3 d): Form X + IV (trace) | Output of competitive slurry (XRPD) ([2]; Water/MeOH (9/1), 3 d): Form X + IV | Output of competitive slurry (XRPD) ([2]; Water/MeOH (17/3), 3 d): Form X | Output of competitive slurry (XRPD) ([2]; Water/MeOH (19/1), 3 d): Form X

[2H]C([2H])(Oc1cc(C)n(-c2c(C)cnc(-n3ccc(C(C)(C)O)n3)c2F)c(=O)c1Cl)c1ncc(F)cc1F [Form IV + X]
Output of competitive slurry (XRPD) ([2]; Water, 2 d): Form X
